{"source": "patent US9060997B2", "about": "“Antifolate compounds for the treatment of melanoma” (UNIVERSIDAD DE MURCIA, priority 2007, dated 2015)", "key": {"[1]": {"system": "Reduced folate carrier (RFC) mRNA", "experiment": "Real-time PCR of RFC expression in SkMel-28", "type": "cell-based, human", "details": "50 μM, after 24 h of treatment", "experimental": "Data were obtained by real time PCR and compared with the relative expression of RFC in normal human skin (zero relative gene expression). Zero time represents the level of RFC in untreated SkMel-28 cells.\nPolyA+ mRNA from human adult skin was purchased from Invitrogen. SkMel-28 and HEM polyA+ mRNA was extracted from 5×10^6 cells using the Illustra Quick Prep Micro mRNA purification kit (GE Healthcare). mRNA (200 ng) was used to synthesize cDNA using SuperScript First-Strand Synthesis System (Invitrogen). PCR amplification of 2 μL of the cDNA strand generated was carried out in a total volume of 50 μL using an Eppendorf Mastercycler Thermal Cycler. Samples were amplified by 40 cycles at 95° C. (1 min), 62° C. (1 min) and 72° C. (1 min). The amplified PCR products were subjected to electrophoresis in 3% agarose gel and stained with ethidium bromide.\ncDNA samples (1 μL) were used for real-time PCR in a total volume of 20 μL using SYBR Green Reagent (Applied Biosystems) and specific primers on a 7500 Real Time PCR System of Applied Biosystems. […] Amplification of target gene sequences were compared against serial dilutions of know quantities of their purified cDNA fragments, and normalized to the abundance of the house-keeping gene β-actin."}, "[2]": {"system": "MS, MAT1A, MAT2A, AHYC and DNMT1 mRNA", "experiment": "Methionine cycle and methylase gene expression in SkMel-28 (real-time PCR)", "type": "cell-based, human", "text": "Histograms compare the estimated relative levels of the mRNA with respect to that of β-actin. Values represent the number of copies of mRNA per each 1×10^6 copies of β-actin.\nPrimers were designer using Primer Express version 2.0 software (Applied Biosystems, Foster City, Calif.) and synthesized by Invitrogen. The sequence of the primers are as follow: MS (forward: 5′-[…]-[…]-3′; […]; MAT1A (forward: 5′-[…]-[…]; […]; The primers designed to amplify FRα cDNA were: FR1 (forward: 5′-[…]-[…]-3′); […]; cDNA samples (1 μL) were used for real-time PCR in a total volume of 20 μL using SYBR Green Reagent (Applied Biosystems) and specific primers on a 7500 Real Time PCR System of Applied Biosystems. The PCR amplification cycles included denaturation 95° C., 15 min; to activate HotStar Taq DNA polymerase and to minimize primer-dimer contribution), and amplification [over 40-50 cycles including denaturation (94° C.; 30 s), annealing (55° C.; 30 s), and extension (72° C.; 1 min)]. All PCR reactions were performed in triplicate and from at least two independent experiments. Non-RT control and negative control samples (without template) were processed in the same manner. The specificity of the amplification was verified by melting curve analysis for all samples, and occasionally by agarosa gel electrophoresis. Amplification of target gene sequences were compared against serial dilutions of know quantities of their purified cDNA fragments, and normalized to the abundance of the house-keeping gene β-actin."}, "SkMel-28 cells": {"system": "SkMel-28 cells", "experiment": "Microscopy of melanosome melanin content", "type": "cell-based, human", "details": "treated SkMel-28 versus untreated", "experimental": "Confluent monolayers of SkMel-28 were harvested with a mixture of 0.05% trypsin, 0.53 mmol/L EDTA and washed once in 0.25 mol/L sucrose by centrifugation at 700×g for 5 min at 4° C. They were then homogenized on ice using 20 strokes of an ice-cold Dounce homogenizer and centrifuged at 700×g for 10 min at 4° C. The resultant postnuclear supernatant was centrifuged at 17,000×g for 15 min at 4° C. to yield a melanosome-enriched granular fraction (17). This fraction was resuspended in 0.5-2 ml of ice-cold 0.25 mol/L sucrose, 10 mmol/L HEPES, pH 7.0 and fixed for 1 h at room temperature in 2% glutaraldehyde, 2% paraformaldehyde in 0.1 mol/L sodium cacodylate buffer, pH 7.3. The fixative was then removed and the samples stored in PBS containing 4% sucrose at 4° C. Samples were subsequently dehydrated with graded alcohols and embedded in epoxy resin. This section were stained with uranyl acetate and lead citrate and examined with a Zeiss EM10 electron microscope."}, "human tyrosinase": {"target": "T1, human tyrosinase (Homo sapiens, UniProt P14679)", "T1 sequence (P14679 19-529)": "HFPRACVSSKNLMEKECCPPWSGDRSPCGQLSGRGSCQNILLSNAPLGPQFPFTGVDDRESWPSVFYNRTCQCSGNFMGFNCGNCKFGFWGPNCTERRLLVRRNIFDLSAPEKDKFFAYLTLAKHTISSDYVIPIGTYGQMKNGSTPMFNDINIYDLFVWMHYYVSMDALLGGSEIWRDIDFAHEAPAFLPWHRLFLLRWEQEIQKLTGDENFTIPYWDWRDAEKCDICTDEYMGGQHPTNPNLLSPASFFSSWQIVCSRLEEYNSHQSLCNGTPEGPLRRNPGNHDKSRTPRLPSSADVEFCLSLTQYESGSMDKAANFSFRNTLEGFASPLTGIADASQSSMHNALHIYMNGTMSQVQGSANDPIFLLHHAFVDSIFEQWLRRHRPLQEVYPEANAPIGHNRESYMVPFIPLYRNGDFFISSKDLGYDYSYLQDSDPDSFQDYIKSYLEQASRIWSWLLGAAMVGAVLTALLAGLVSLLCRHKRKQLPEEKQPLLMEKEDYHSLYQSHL", "experiment": "Tyrosinase-catalyzed oxidation, steady-state kinetics", "type": "biochemical", "set-up": "Human tyrosinase was purified to homogeneity from SkMel-28 (1×10^8 cells) following the protocol designed by Yurkow and Laskin (1989); endogenous in cells; host or cells: SkMel-28", "details": "human tyrosinase from SkMel-28, pH 5.5, 25° C.; read-out: Michaelis-Menten constant (Km)", "experimental": "The arrow represents the absorbance direction and the time between recordings was 1 min. […] Data was fitted to the Michaelis-Menten equation using non-lineal regression analysis.\nHuman tyrosinase was purified to homogeneity from SkMel-28 (1×10^8 cells) following the protocol designed by Yurkow and Laskin (1989). TMECG oxidation catalyzed by human tyrosinase was followed using a Perkin-Elmer Lambda-35 spectrophotometer. Steady-state kinetic constants were obtained by measuring the initial rates of TMECG oxidation at 412 nm in 30 mM sodium acetate buffer, pH 5.5 and 25° C."}, "[3]": {"details": "SkMel-28, 50 μM, five days, versus untreated SkMel-28"}}}
{"smiles": "COc1cc(C(=O)O[C@@H]2Cc3c(O)cc(O)cc3O[C@@H]2c2ccc(O)c(O)c2)cc(OC)c1OC", "note": "[TMECG, 3-O-(3,4,5-trimethoxybenzoyl)-(−)-epicatechin]", "values": [{"measurement": "reduction in RFC expression", "setting": "[1]", "value": "more than 80%"}, {"measurement": "level of MAT1A mRNA", "setting": "[2]; [3]", "value": "essentially the some"}, {"measurement": "level of MAT2A mRNA", "setting": "[2]; [3]", "value": "slightly but significant increase"}, {"measurement": "DNMT1 mRNA", "setting": "[2]; SkMel-28, treated cells", "value": "recovered normal levels"}, {"measurement": "melanosome melanin content", "setting": "SkMel-28 cells", "value": "much less melanin content"}, {"measurement": "Km", "setting": "human tyrosinase", "value": "120 ± 20", "unit": "µM"}]}
